Test results reported in patent publication US20190031717A1, “MULTI-FUNCTIONAL FUSION POLYPEPTIDE, PREPARATION METHOD THEREOF, AND APPLICATION OF SAME” (NANJING ANJI BIOLOGICAL TECHNOLOGY CO., LTD, priority 2016, published 2019).

Assays:
Set-up in all cases: concentration or dose not given beside the values
Staphylococcal fluid = assay: Mouse pneumonia model, bacterial; format: in vivo, BALB/C mice; conditions: mean ± SD
Method: (§1) The mouse pneumonia model was successfully established by the nose-drop method. To build the mouse pneumonia model, BALB/C mice with a body mass of 16-22 g were selected and anesthetized pneumonia chain was prepared after anesthesia with ether on day 0, day 1, and day 2. Staphylococcal fluid, adenovirus concentrate, Mycoplasma pneumoniae, Chlamydia pneumoniae, protozoa, and pneumonia fungi were slowly dripped into the nasal cavity of the mice, so that they enter the tracheobronchial. During the operation process, care was exercised to prevent bacterial fluid from flowing into the esophagus, which leads to inactivation the bacterial fluid. After successful model establishment, the polypeptides of the present invention were administered, and the results were shown in Table 5. […] The results were expressed in average value±standard deviation.

Brain tumor = assay: MTT assay, tumor cells; format: cell-based, human; conditions: 48 hours, mean ± SD
Method: (§2) A variety of human tumor cells were cultured in a 37° C., 5% (volume fraction) CO2 incubator to a density of 90% or more, collected by trypsinization, resuspended in a culture medium and counted under a microscope, and the cells were harvested. The concentration was adjusted to 2.0×10^4 cells/mL, the cell suspension was inoculated into a 96-well plate at 100 μL per well and cultured overnight at 37° C. in a 5% (volume fraction) CO2 incubator. After the cells were completely adhered, the polypeptides of the present invention were added as drug-administered groups, and a culture solution containing no drug was used as a blank control group, and the culture solution was diluted to each predetermined concentration. Each dilution was separately added to a 96-well plate at 100 μL per well and incubated for 48 hours at 37° C. in a 5% (volume fraction) CO2 incubator. 20 μL of 5 mg/mL MTT was added to each well of a 96-well plate and incubation was continued for 4 h. The medium was aspirated and dissolved in 100 μL of DMSO per well. The absorbance was measured with a microplate reader at a detection wavelength of 570 nm and a reference wavelength of 630 nm, and the growth inhibition rate was calculated as follows: tumor growth inhibition rate (%)=(1−absorbance value of the administered group/unadministered group absorbance value)×100%, and the experiment was repeated 3 times independently. The results obtained from the test were expressed as mean±standard deviation, and the tumor growth inhibition rate of the unadministered group was 0. The results in Table 7 indicate that the polypeptides of the present invention have a significant inhibitory effect on the growth of various tumors (FIG. 6).

Gastric cancer = assay: MTT assay, tumor cells; format: cell-based, human; conditions: 48 hours, mean ± SD
Method: as §2

Melanoma = assay: MTT assay, tumor cells; format: cell-based, human; conditions: 48 hours, mean ± SD
Method: as §2

Hemangioma = assay: MTT assay, tumor cells; format: cell-based, human; conditions: 48 hours, mean ± SD
Method: as §2

Esophageal cancer = assay: MTT assay, tumor cells; format: cell-based, human; conditions: 48 hours, mean ± SD
Method: as §2

Uterine cancer = assay: MTT assay, tumor cells; format: cell-based, human; conditions: 48 hours, mean ± SD
Method: as §2

Pancreatic cancer = assay: MTT assay, tumor cells; format: cell-based, human; conditions: 48 hours, mean ± SD
Method: as §2

Head and neck cancer = assay: MTT assay, tumor cells; format: cell-based, human; conditions: 48 hours, mean ± SD
Method: as §2

Bladder Cancer = assay: MTT assay, tumor cells; format: cell-based, human; conditions: 48 hours, mean ± SD
Method: as §2

Cervical cancer = assay: MTT assay, tumor cells; format: cell-based, human; conditions: 48 hours, mean ± SD
Method: as §2

Prostate cancer = assay: MTT assay, tumor cells; format: cell-based, human; conditions: 48 hours, mean ± SD
Method: as §2

Liver cancer = assay: MTT assay, tumor cells; format: cell-based, human; conditions: 48 hours, mean ± SD
Method: as §2

Kidney cancer = assay: MTT assay, tumor cells; format: cell-based, human; conditions: 48 hours, mean ± SD
Method: as §2

Breast cancer = assay: MTT assay, tumor cells; format: cell-based, human; conditions: 48 hours, mean ± SD
Method: as §2

Ovarian cancer = assay: MTT assay, tumor cells; format: cell-based, human; conditions: 48 hours, mean ± SD
Method: as §2

Thyroid cancer = assay: MTT assay, tumor cells; format: cell-based, human; conditions: 48 hours, mean ± SD
Method: as §2

Colorectal cancer = assay: MTT assay, tumor cells; format: cell-based, human; conditions: 48 hours, mean ± SD
Method: as §2

sarcoma = assay: MTT assay, tumor cells; format: cell-based, human; conditions: 48 hours, mean ± SD
Method: as §2

Mycoplasma pneumoniae = assay: Mouse pneumonia model, mycoplasma; format: in vivo, BALB/C mice; conditions: mean ± SD
Method: as §1

[1] = system: Pneumonia caused by lung infection; assay: Mouse pneumonia model, pneumonia caused by lung infection; format: in vivo, BALB/C mice; conditions: mean ± SD
Method: as §1

pneumonia fungi = assay: Mouse pneumonia model, fungal; format: in vivo, BALB/C mice; conditions: mean ± SD
Method: as §1

Chlamydia pneumoniae = assay: Mouse pneumonia model, chlamydia; format: in vivo, BALB/C mice; conditions: mean ± SD
Method: as §1

Substance | Inhibitory Effects on Various Pulmonary Infections (Staphylococcal fluid) | tumor growth inhibition rate, MTT Assay (Brain tumor) | tumor growth inhibition rate, MTT Assay (Gastric cancer) | tumor growth inhibition rate, MTT Assay (Melanoma) | tumor growth inhibition rate, MTT Assay (Hemangioma) | tumor growth inhibition rate, MTT Assay (Esophageal cancer) | tumor growth inhibition rate, MTT Assay (Uterine cancer) | tumor growth inhibition rate, MTT Assay (Pancreatic cancer) | tumor growth inhibition rate, MTT Assay (Head and neck cancer) | tumor growth inhibition rate, MTT Assay (Bladder Cancer) | tumor growth inhibition rate, MTT Assay (Cervical cancer) | tumor growth inhibition rate, MTT Assay (Prostate cancer) | tumor growth inhibition rate, MTT Assay (Liver cancer) | tumor growth inhibition rate, MTT Assay (Kidney cancer) | tumor growth inhibition rate, MTT Assay (Breast cancer) | tumor growth inhibition rate, MTT Assay (Ovarian cancer) | tumor growth inhibition rate, MTT Assay (Thyroid cancer) | tumor growth inhibition rate, MTT Assay (Colorectal cancer) | tumor growth inhibition rate, MTT Assay (sarcoma) | Inhibitory Effects on Various Pulmonary Infections (Mycoplasma pneumoniae) | further results
Arg-Gly-Asp-Gly-Gly-Gly-Gly-Ile-Val-Arg-Arg-Ala-Asp-Arg-Ala-Ala-Val-Pro-Gly-Gly-Gly-Gly-Pro-(D-Pyr)-(D-Cys)-Bip-Arg-Gly-Glu [Polypeptide IV] | 44.75 ± 13.08% | 68.85 ± 18.42% | 65.35 ± 21.81% | 57.25 ± 15.31% | 87.49 ± 27.47% | 66.24 ± 17.72% | 78.49 ± 25.33% | 74.13 ± 24.16% | 48.89 ± 13.08% | 52.23 ± 13.97% | 64.58 ± 28.95% | 81.37 ± 26.10% | 73.42 ± 19.64% | 60.35 ± 20.48% | 92.16 ± 24.65% | 91.45 ± 24.46% | 63.05 ± 16.87% | 85.80 ± 22.95% | 66.39 ± 17.76% | 40.35 ± 16.87% | Inhibitory Effects on Various Pulmonary Infections [1]: 52.37 ± 21.81%; Inhibitory Effects on Various Pulmonary Infections (pneumonia fungi): 59.28 ± 19.64%; Inhibitory Effects on Various Pulmonary Infections (Chlamydia pneumoniae): 47.43 ± 17.72%
Arg-Gly-Asp-Gly-Gly-Gly-Gly-Pro-(D-Pyr)-(D-Cys)-Bip-Arg-Gly-Glu-Gly-Gly-Gly-Gly-Ile-Val-Arg-Arg-Ala-Asp-Arg-Ala-Ala-Val-Pro [Polypeptide III] | 47.07 ± 13.26% | 77.52 ± 17.00% | 73.58 ± 20.14% | 64.46 ± 14.14% | 85.21 ± 25.36% | 74.58 ± 16.36% | 70.93 ± 23.38% | 66.99 ± 22.30% | 55.05 ± 12.07% | 58.81 ± 12.90% | 68.52 ± 26.72% | 73.54 ± 24.09% | 82.66 ± 18.13% | 67.94 ± 18.90% | 90.11 ± 22.76% | 75.87 ± 22.58% | 70.99 ± 15.57% | 96.60 ± 21.18% | 74.75 ± 16.39% | 42.44 ± 11.96% | Inhibitory Effects on Various Pulmonary Infections [1]: 55.08 ± 15.52%; Inhibitory Effects on Various Pulmonary Infections (pneumonia fungi): 62.35 ± 17.56%; Inhibitory Effects on Various Pulmonary Infections (Chlamydia pneumoniae): 49.88 ± 14.05%
Ile-Val-Arg-Arg-Ala-Asp-Arg-Ala-Ala-Val-Pro-Gly-Gly-Gly-Gly-Arg-Gly-Asp-Gly-Gly-Gly-Gly-Pro-(D-Pyr)-(D-Cys)-Bip-Arg-Gly-Glu [Polypeptide V] | 38.12 ± 11.17% | 58.65 ± 15.73% | 55.67 ± 18.63% | 48.77 ± 13.08% | 87.49 ± 23.46% | 56.43 ± 15.13% | 66.86 ± 21.63% | 63.15 ± 20.63% | 41.65 ± 11.17% | 44.49 ± 11.93% | 64.58 ± 24.72% | 69.32 ± 22.29% | 62.54 ± 16.77% | 51.41 ± 17.48% | 78.51 ± 21.05% | 77.90 ± 20.89% | 53.71 ± 14.40% | 73.08 ± 19.60% | 56.55 ± 15.16% | 34.37 ± 14.40% | Inhibitory Effects on Various Pulmonary Infections [1]: 44.61 ± 18.63%; Inhibitory Effects on Various Pulmonary Infections (pneumonia fungi): 50.50 ± 16.77%; Inhibitory Effects on Various Pulmonary Infections (Chlamydia pneumoniae): 40.40 ± 15.13%
